Test results reported in patent publication US5929093A, “Bifunctional acetylcholinesterase reactivators” (priority 1997, dated 1999).

Biological target: T1, human red blood cell AChE (Homo sapiens, UniProt P22303)
T1 construct: human red blood cell AChE; from tissue; host or cells: human red blood cells
Assay: AChE reactivation assay with echothiophate-inhibited human red blood cell AChE
Type: biochemical
Conditions: for activation at 1 µM: read-out: Percentages of AChE reactivation

[1] = single concentration 10^-6 M, added for 1 hour, AChE inhibited by echothiophate 10^-7 M, means ± standard errors of 4 measurements

T1 sequence (P22303 other isoform, or with tags, fused parts or gaps): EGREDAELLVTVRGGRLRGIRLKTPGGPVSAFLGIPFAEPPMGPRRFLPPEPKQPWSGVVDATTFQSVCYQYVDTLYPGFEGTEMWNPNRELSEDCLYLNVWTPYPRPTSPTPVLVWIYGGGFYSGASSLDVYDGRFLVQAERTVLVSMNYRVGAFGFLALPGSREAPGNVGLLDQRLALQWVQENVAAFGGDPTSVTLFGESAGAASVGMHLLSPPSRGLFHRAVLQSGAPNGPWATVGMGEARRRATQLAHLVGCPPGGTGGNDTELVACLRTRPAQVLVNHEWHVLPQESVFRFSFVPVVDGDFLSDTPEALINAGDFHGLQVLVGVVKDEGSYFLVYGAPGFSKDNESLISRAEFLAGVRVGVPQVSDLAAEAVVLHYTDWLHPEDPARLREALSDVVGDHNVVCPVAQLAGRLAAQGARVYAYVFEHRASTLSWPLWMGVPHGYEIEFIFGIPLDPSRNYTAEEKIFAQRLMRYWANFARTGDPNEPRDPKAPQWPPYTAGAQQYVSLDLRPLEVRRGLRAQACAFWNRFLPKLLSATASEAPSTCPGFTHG

Compound	activation at 1 µM [1] [%]	potency in reactivation relative to 2-PAM (full dose-response curves) (full dose-response curves, compared with 2-PAM)	Percentages of AChE reactivation [1] [%]
ON=Cc1cc[n+](CCCCCCCCC[n+]2ccc(C=NO)cc2)cc1 [Compound 1d, 1,9-Nonylene-bis-N,N'-4-pyridiniumaldoxime dibromide]	31 ± 2.3	–	–
ON=Cc1cc[n+](CCCCCCC[n+]2ccc(C=NO)cc2)cc1 [Compound 1b, 1,7-Heptylene-bis-N,N'-4-pyridiniumaldoxime dibromide]	61 ± 3.2	ten-fold more potent	–
ON=Cc1cccc[n+]1CCCCCCCC[n+]1ccccc1C=NO [Compound 3c, 1,8-Octylene-bis-N,N'-2-pyridiniumaldoxime dichloride]	69 ± 4.7	–	–
ON=Cc1cc[n+](CCCCCCCC[n+]2ccc(C=NO)cc2)cc1 [Compound 1c, 1,8-Octylene-bis-N,N'-4-pyridiniumaldoxime dibromide]	44 ± 1.7	–	–
ON=Cc1cc[n+](CCCCCC[n+]2ccc(C=NO)cc2)cc1 [Compound 1a, 1,6-Hexylene-bis-N,N'-4-pyridiniumaldoxime dibromide]	47 ± 1.8	–	–
ON=Cc1cccc[n+]1CCCCCCCCC[n+]1ccccc1C=NO [Compound 3d, 1,9-Nonylene-bis-N,N'-2-pyridiniumaldoxime dichloride]	58 ± 0.5	–	–
ON=Cc1cccc[n+]1CCCCCCC[n+]1ccccc1C=NO [Compound 3b, 1,7-Heptylene-bis-N,N'-2-pyridiniumaldoxime dichloride]	80 ± 3.7	–	–
ON=Cc1cccc[n+]1CCCCCC[n+]1ccccc1C=NO [Compound 3a, 1,6-Hexylene-bis-N,N'-2-pyridinium aldoxime dichloride]	67 ± 0.8	–	–
C[n+]1ccccc1C=NO [Compound 2-PAM, 2-pralidoxime, reference compound]	17	–	17 ± 2.8
